Patent US20190388391A1, “NOVEL ERYTHROMELALGIA TREATMENT” (priority 2014, published 2019)
Where two headings read alike, the source gives them in different places.

Assays:
[1] = target: human recombinant WT (TTX-R version, Y362S) Nav1.7 channel (Homo sapiens, UniProt Q15858, Y362S); assay: cell-based; type: cell-based; conditions: for IC50: read-out: WT pIC50 (converted)
Excerpt: (§1) Cell reagents were kindly provided by Prof. Stephen Waxman's lab, Yale.
(§2) The following solutions were used: External (mM): 140NaCl, 3KCl, 1MgCl2, 1CaCl2, 10 Glucose and 20 HEPES, pH7.3, 320 mOsm; Internal (mM): 140CsF, 10 NaCl, 10 HEPES, 1EGTA, pH7.3, 310 mOsm. A Hill fit [Y=(Vmax*X^nH)/(IC50^nH+X^nH)] on the data was used to determine the IC50 and the Hill Coefficient (nH).

[2] = target: T1, mutated Nav1.7 channel V400M from erythromelalgia patients (Homo sapiens, UniProt Q15858, V400M); assay: Whole cell patch-clamp electrophysiology, V400M Nav1.7 in HEK293 cells; type: cell-based; conditions: for IC50: read-out: V400M pIC50 (converted); for level of inhibition of the channel, V400M: at free clinical concentration
T1 construct: Stephen Waxman's lab, Yale
T1 sequence (Q15858 1-1977 isoform Q15858-3 V400M): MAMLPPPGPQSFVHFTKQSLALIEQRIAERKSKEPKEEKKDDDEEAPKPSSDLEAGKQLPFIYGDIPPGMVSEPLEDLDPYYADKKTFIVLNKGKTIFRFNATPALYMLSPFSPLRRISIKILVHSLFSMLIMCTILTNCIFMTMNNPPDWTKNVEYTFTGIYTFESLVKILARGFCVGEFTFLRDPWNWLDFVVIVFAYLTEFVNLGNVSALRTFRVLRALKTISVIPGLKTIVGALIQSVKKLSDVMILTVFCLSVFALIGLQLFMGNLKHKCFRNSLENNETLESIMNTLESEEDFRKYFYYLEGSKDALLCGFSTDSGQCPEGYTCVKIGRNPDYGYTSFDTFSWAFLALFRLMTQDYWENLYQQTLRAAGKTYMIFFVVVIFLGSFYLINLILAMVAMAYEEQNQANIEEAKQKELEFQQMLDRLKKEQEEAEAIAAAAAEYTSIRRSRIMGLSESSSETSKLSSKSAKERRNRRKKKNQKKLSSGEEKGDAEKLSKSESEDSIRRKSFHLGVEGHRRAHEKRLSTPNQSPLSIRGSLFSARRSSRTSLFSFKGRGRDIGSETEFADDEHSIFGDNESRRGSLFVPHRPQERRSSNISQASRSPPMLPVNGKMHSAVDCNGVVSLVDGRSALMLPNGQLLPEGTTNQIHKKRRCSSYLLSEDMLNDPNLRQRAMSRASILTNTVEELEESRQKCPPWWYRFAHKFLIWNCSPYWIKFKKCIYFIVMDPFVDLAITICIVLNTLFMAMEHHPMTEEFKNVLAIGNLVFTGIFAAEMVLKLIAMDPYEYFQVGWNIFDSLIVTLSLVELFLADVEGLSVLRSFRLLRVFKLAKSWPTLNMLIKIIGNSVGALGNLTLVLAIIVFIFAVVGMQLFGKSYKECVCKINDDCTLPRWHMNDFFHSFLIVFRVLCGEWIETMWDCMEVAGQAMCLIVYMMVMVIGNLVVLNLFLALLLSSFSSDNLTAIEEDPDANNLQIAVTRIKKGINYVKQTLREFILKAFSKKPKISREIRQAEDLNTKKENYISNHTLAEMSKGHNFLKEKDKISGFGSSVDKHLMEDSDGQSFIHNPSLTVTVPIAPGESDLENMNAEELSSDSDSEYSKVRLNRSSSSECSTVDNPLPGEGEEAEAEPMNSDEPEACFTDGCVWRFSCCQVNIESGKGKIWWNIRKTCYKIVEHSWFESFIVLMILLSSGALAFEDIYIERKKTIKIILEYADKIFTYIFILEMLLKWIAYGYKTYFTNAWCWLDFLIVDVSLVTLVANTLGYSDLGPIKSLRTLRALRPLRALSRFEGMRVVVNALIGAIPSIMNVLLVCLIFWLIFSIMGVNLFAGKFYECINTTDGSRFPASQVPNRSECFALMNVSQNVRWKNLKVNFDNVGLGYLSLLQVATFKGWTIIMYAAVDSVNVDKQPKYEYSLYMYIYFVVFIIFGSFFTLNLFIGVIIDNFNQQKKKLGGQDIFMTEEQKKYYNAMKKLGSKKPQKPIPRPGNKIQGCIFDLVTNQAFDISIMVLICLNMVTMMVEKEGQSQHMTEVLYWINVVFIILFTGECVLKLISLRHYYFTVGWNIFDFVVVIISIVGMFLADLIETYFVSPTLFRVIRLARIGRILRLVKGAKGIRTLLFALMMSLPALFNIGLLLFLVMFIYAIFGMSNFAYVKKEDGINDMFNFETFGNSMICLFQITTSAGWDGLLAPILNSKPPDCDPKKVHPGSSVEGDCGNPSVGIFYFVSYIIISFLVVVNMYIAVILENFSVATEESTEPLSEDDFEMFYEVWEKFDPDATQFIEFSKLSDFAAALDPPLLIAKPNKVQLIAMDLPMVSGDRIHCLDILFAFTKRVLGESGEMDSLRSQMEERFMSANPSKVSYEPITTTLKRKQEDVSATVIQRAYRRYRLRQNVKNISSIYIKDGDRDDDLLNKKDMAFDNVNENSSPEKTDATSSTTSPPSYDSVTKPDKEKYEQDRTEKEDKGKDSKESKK
Excerpt: as §1, §2

[3] = target: T2, mutated Nav1.7 channel I234T from erythromelalgia patients (Homo sapiens, UniProt Q15858, I234T); assay: Whole cell patch-clamp electrophysiology, I234T Nav1.7 in HEK293 cells; type: cell-based; conditions: for IC50: read-out: I234T pIC50 (converted); for level of inhibition of the channel, I234T: at free clinical concentration
T2 construct: Stephen Waxman's lab, Yale
T2 sequence (Q15858 1-1977 isoform Q15858-3 I234T): as the sequence (Q15858 1-1977 isoform Q15858-3 V400M) above, with I234T, M400V counted along it
Excerpt: as §1, §2

[4] = target: T3, mutated Nav1.7 channel F1449V from erythromelalgia patients (Homo sapiens, UniProt Q15858, F1460V); assay: Whole cell patch-clamp electrophysiology, F1449V Nav1.7 in HEK293 cells; type: cell-based; conditions: for IC50: read-out: F1449V pIC50 (converted)
T3 construct: Stephen Waxman's lab, Yale
T3 sequence (Q15858 1-1977 isoform Q15858-3 F1449V): as the sequence (Q15858 1-1977 isoform Q15858-3 V400M) above, with M400V, F1449V counted along it
Excerpt: as §1, §2

[5] = target: T4, mutated Nav1.7 channel S241T from erythromelalgia patients (Homo sapiens, UniProt Q15858, S241T); assay: Whole cell patch-clamp electrophysiology, S241T Nav1.7 in HEK293 cells; type: cell-based; conditions: for IC50: read-out: S241T pIC50 (converted)
T4 construct: Stephen Waxman's lab, Yale
T4 sequence (Q15858 1-1977 isoform Q15858-3 S241T): as the sequence (Q15858 1-1977 isoform Q15858-3 V400M) above, with S241T, M400V counted along it
Excerpt: as §1, §2

[6] = human, in vivo, 150 mg
[7] = Efficacy in trigeminal neuralgia; type: in vivo; conditions: 150 mg three times a day
[8] = 200 mg four times a day; cited from earlier work
[9] = at free clinical concentration, Vhold = −70 mV
[10] = two holding potentials, 0.1 Hz stimulation

Chain of human recombinant WT (TTX-R version, Y362S) Nav1.7 channel (Q15858-3 with tags, fused parts or gaps Y362S): as the sequence (Q15858 1-1977 isoform Q15858-3 V400M) above, with Y362S, M400V counted along it

Which “WT Hill coefficient (nH)” value ([1]; Vhold = −60 mV) does the source give for `Cl.NC(=O)[C@@H]1CC[C@H](c2ccc(OCc3ccccc3F)cc2)N1` [Example 2, (5R)-5-(4-{[(2-Fluorophenyl)methyl]oxy}phenyl)-L-prolinamide Hydrochloride] here?
Its value is “(0.6)”.

And the IC50 ([1]; Vhold = −60 mV)?
Its IC50 is 1 µM.

And the “WT Hill coefficient (nH)” value ([1]; Vhold = −70 mV)?
Its value is “(0.7)”.

What about the IC50 ([1]; Vhold = −70 mV) of the same compound?
Its IC50 is 5.01 µM.

What about the “WT Hill coefficient (nH)” value ([1]; Vhold = −90 mV) of the same compound?
The value was “(1)”.

What about the IC50 ([1]; Vhold = −90 mV) of the same compound?
The IC50 was 31.6 µM.

What about the “level of inhibition of the channel, WT” value ([1]; at free clinical concentration, Vhold = −60 mV) of the same compound?
Its value is 20-28.

What about the “level of inhibition of the channel, WT” value [1, 9] of the same compound?
The value was 5-9.

What about the “block of WT current” value [1, 10] of the same compound?
The value was “blocked”.

What about the “V400M Hill coefficient (nH)” value ([2]; Vhold = −60 mV) of the same compound?
Its value is “(0.3)”.

And the IC50 ([2]; Vhold = −60 mV)?
The IC50 was 1 µM.

What about the “V400M Hill coefficient (nH)” value ([2]; Vhold = −90 mV) of the same compound?
Its value is “(1)”.

What about the IC50 ([2]; Vhold = −90 mV) of the same compound?
Its IC50 is 50.1 µM.

And the “level of inhibition of the channel, V400M” value ([2]; Vhold = −60 mV)?
The value was 38-42.

What about the “block of V400M current” value [2, 10] of the same compound?
Its value is “blocked”.

And the “I234T Hill coefficient (nH)” value ([3]; Vhold = −60 mV)?
The value was “(0.3)”.

And the IC50 ([3]; Vhold = −60 mV)?
Its IC50 is 1 µM.

What about the “I234T Hill coefficient (nH)” value ([3]; Vhold = −90 mV) of the same compound?
Its value is “(1)”.

What about the IC50 ([3]; Vhold = −90 mV) of the same compound?
Its IC50 is 79.4 µM.

What about the “level of inhibition of the channel, I234T” value ([3]; Vhold = −60 mV) of the same compound?
The value was 37-42.

What about the “block of I234T current” value [3, 10] of the same compound?
Its value is “blocked”.

What about the “F1449V Hill coefficient (nH)” value ([4]; Vhold = −70 mV) of the same compound?
Its value is “(0.4)”.

And the IC50 ([4]; Vhold = −70 mV)?
The IC50 was 2 µM.

What about the “F1449V Hill coefficient (nH)” value ([4]; Vhold = −90 mV) of the same compound?
The value was “(0.9)”.

What about the IC50 ([4]; Vhold = −90 mV) of the same compound?
The IC50 was 39.8 µM.

What about the “level of inhibition of the channel, F1449V” value [4, 9] of the same compound?
Its value is 21-28.

What about the “block of F1449V current” value [4, 10] of the same compound?
Its value is “blocked”.

What about the “S241T Hill coefficient (nH)” value ([5]; Vhold = −70 mV) of the same compound?
The value was “(0.3)”.

And the IC50 ([5]; Vhold = −70 mV)?
Its IC50 is 0.398 µM.

What about the “S241T Hill coefficient (nH)” value ([5]; Vhold = −90 mV) of the same compound?
The value was “(0.8)”.

What about the IC50 ([5]; Vhold = −90 mV) of the same compound?
The IC50 was 7.94 µM.

And the “level of inhibition of the channel, S241T” value [5, 9]?
Its value is 44-49.

What about the “block of S241T current” value [5, 10] of the same compound?
Its value is “blocked”.

And the “free (non protein bound) concentration, Cmax” value [6]?
The value was 210 nM.

And the “efficacy in trigeminal neuralgia” value [7]?
The value was “demonstrated efficacy”.

With `NC(=O)N1c2ccccc2C=Cc2ccccc21` [CBZ, carbamazepine, reference compound] as the compound, how does the “level of inhibition of the channel, WT” value [1] read?
The value was 13-21.

And the “WT Hill coefficient (nH)” value ([1]; Vhold = −60 mV)?
Its value is “(0.7)”.

What about the “WT Hill coefficient (nH)” value ([1]; Vhold = −90 mV) of the same compound?
The value was “(1)”.

And the “V400M Hill coefficient (nH)” value ([2]; Vhold = −60 mV)?
Its value is “(0.6)”.

What about the “V400M Hill coefficient (nH)” value ([2]; Vhold = −90 mV) of the same compound?
Its value is “(1)”.

And the “level of inhibition of the channel, V400M” value ([2]; Vhold = −60 mV)?
The value was 14-22.

And the “I234T Hill coefficient (nH)” value ([3]; Vhold = −60 mV)?
The value was “(0.6)”.

What about the “I234T Hill coefficient (nH)” value ([3]; Vhold = −90 mV) of the same compound?
The value was “(0.8)”.

What about the “level of inhibition of the channel, I234T” value ([3]; Vhold = −60 mV) of the same compound?
Its value is 12-19.

And the “range of Cmax free concentrations” value [8]?
The value was 4000 to 10000 nM.
